Experimental data: patent US20090215882A1, “LYOPHILIZED SOLID TAXANE COMPOSITION, A PROCESS FOR PREPARING SAID SOLID COMPOSITION, A PHARMACEUTICAL FORMULATION AND A KIT FOR SAID FORMULATION” (ERIOCHEM, S.A., priority 2006, published 2009)

Columns and labels:
[1] = Solubility / dissolution in aqueous solutions without organic solvent; assay type: physicochemical; conditions: for dissolution of the intermediate lyophilized taxane in aqueous Solutol HS15 solution: aqueous Solutol HS15 mixture with excipient (mannitol/citric acid or povidone), no organic solvent
Experimental: The intermediate lyophilized taxane is dissolved in aqueous solutions of polymers or a mixture of said polymers, namely Lutrol™ F68, Solutol™ HS15, povidone K12 PF or K17 PF.

[2] = Apparent density of the lyophilizate; assay type: physicochemical; conditions: intermediate lyophilized taxane (first lyophilization from organic solvent)
From the text: The apparent density of the lyophilizate is defined as the quotient between the mass of the lyophilization cake in grams and its volume in milliliters.
The apparent density of the lyophilizates has been carefully assessed, and after a great number of experiments the apparent density values in which the technical effects of the invention are possible such as easy reconstitution of said solid composition of lyophilized taxane in an aqueous solution free from organic solvent were obtained. […] In other words, the lower the apparent density of the lyophilization cake, the fastest its dissolution. Also, if the apparent density of the solid composition of lyophilized taxane of the present invention is very low, the concentration of the tensoactive is not enough to maintain said taxane in solution, and said taxane precipitates rapidly.

[3] = Chemical degradation of docetaxel in aqueous tensoactive solution; assay type: physicochemical; conditions: pH maintained at values higher than 6
[4] = after administration to mammals, compared to polysorbates; cited from earlier work
[5] = estimated by the World Health Organization; cited from earlier work

Compound: CC(=O)O[C@@]12CO[C@@H]1C[C@H](O)[C@@]1(C)C(=O)[C@H](O)C3=C(C)[C@@H](OC(=O)[C@H](O)[C@@H](NC(=O)OC(C)(C)C)c4ccccc4)C[C@@](O)([C@@H](OC(=O)c4ccccc4)[C@H]21)C3(C)C [Example 1, docetaxel]
- dissolution of the intermediate lyophilized taxane in aqueous Solutol HS15 solution [1]: readily dissolved
- apparent density [2]: 0.025 g/mL

Compound: CC(=O)O[C@@]12CO[C@@H]1C[C@H](O)[C@@]1(C)C(=O)[C@H](O)C3=C(C)[C@@H](OC(=O)[C@H](O)[C@@H](NC(=O)OC(C)(C)C)c4ccccc4)C[C@@](O)([C@@H](OC(=O)c4ccccc4)[C@H]21)C3(C)C [Example 2, docetaxel]
- dissolution of the intermediate lyophilized taxane in aqueous Solutol HS15 solution [1]: readily dissolved
- apparent density [2]: 0.014 g/mL

Compound: CC(=O)O[C@@]12CO[C@@H]1C[C@H](O)[C@@]1(C)C(=O)[C@H](O)C3=C(C)[C@@H](OC(=O)[C@H](O)[C@@H](NC(=O)OC(C)(C)C)c4ccccc4)C[C@@](O)([C@@H](OC(=O)c4ccccc4)[C@H]21)C3(C)C [docetaxel]
- solubility in aqueous solutions ([1]; commercially available API, absence of added organic solvents): not soluble
- degradation to 7-epidocetaxel [3]: ≤ 60%

Compound: Polyethylene glycol-15-hydroxystearate [Solutol HS15]
- histaminic release [4]: very low histaminic release

Compound: polysorbate 80
- maximum daily dose [5]: 25 mg/kg of body weight
